Reference: patent US10035801B2, “Pyrazolo compounds and uses thereof” (CONSTELLATION PHARMACEUTICALS, INC., priority 2013, dated 2018)
Where two headings read alike, the source gives them in different places.

Legend:
GASC1 = target: T1, GASC1 (Homo sapiens, UniProt Q9H3R0); assay: GASC1 demethylation assay on H3K9Me3 peptide (RapidFire HT-MS); format: biochemical; settings: read-out: GASC1 Inhibition
T1 construct: 6×His tagged recombinant GASC1 (N 350aa) was purified from E. Coli BL21(DE3); 6xHis; made in house; host or cells: E. coli BL21(DE3)
T1 sequence (Q9H3R0 1-350 limits assumed): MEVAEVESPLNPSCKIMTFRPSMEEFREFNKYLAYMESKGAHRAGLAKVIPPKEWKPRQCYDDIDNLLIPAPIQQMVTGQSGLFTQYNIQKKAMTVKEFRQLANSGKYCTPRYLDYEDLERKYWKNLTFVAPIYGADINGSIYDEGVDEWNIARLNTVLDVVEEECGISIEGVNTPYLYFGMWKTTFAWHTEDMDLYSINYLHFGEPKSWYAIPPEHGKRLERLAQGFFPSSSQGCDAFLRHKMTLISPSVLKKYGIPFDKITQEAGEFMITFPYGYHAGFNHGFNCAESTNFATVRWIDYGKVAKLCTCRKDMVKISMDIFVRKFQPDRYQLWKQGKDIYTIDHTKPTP
Description: 6×His tagged recombinant GASC1 (N 350aa) was purified from E. Coli BL21(DE3) to near homogeneity. The demethylation reaction buffer contained 50 mM TrisCl pH 7.5, 0.01% Triton X-100, 5% glycerol, 1 mM ascorbate (Cat# A4034, Sigma Aldrich), 5 μM α-ketoglutarate (# K2010, Sigma Aldrich) and 20 μM Fe2(NH4)2(SO4)2 (Cat# F1543, Sigma Aldrich). In 25 μL demethylation reaction system, 400 nM recombinant GASC1 and 20 μM H3K9me3 peptide (1-21 aa) were incubated with compounds for 10 minutes, and then α-ketoglutarate and Fe2(NH4)2(SO4)2 were added to initiate the reaction. All of the reactions were incubated for 45 minutes at room temperature, and then 25 μl of 1 N HCl was added to quench the reactions. After termination, plates were sealed and frozen at −80° C. and shipped on dry ice to BioTrove Inc. (Woburn, Mass.) for analysis.
All the reactions were read by RapidFire™ HT-MS platform developed in BioTrove Inc, and the method has been described in detail previously (Assay and Drug Development Technologies, 2004; 2(4): 373-381). Briefly, at BioTrove, plates were thawed and immediately analyzed using RapidFire™ system coupled to a Sciex API4000 triple quadrapole mass spectrometer. The samples were delivered directly from the plate to a clean-up cartridge (BioTrove column A) to remove nonvolatile assay components with 0.1% formic acid in a 3-sec wash cycle. The peptide substrate and demethylated product were coeluted to the mass spectrometer with 80% acetonitrile, 0.1% formic acid. Both the substrate and product signals were read at their +5 charge species, and the conversion from substrate to product is assessed by [H3K9me2 Read]/[H3K9me2 Read+H3K9me3 Read].

KDM5A = target: T2, KDM5A (Homo sapiens, UniProt P29375); assay: KDM5 enzyme assay, KDM5A HTRF (Example 463); format: biochemical
T2 construct: Full length KDM5A enzyme was expressed and purified inhouse; made in house
T2 sequence (P29375 whole entry): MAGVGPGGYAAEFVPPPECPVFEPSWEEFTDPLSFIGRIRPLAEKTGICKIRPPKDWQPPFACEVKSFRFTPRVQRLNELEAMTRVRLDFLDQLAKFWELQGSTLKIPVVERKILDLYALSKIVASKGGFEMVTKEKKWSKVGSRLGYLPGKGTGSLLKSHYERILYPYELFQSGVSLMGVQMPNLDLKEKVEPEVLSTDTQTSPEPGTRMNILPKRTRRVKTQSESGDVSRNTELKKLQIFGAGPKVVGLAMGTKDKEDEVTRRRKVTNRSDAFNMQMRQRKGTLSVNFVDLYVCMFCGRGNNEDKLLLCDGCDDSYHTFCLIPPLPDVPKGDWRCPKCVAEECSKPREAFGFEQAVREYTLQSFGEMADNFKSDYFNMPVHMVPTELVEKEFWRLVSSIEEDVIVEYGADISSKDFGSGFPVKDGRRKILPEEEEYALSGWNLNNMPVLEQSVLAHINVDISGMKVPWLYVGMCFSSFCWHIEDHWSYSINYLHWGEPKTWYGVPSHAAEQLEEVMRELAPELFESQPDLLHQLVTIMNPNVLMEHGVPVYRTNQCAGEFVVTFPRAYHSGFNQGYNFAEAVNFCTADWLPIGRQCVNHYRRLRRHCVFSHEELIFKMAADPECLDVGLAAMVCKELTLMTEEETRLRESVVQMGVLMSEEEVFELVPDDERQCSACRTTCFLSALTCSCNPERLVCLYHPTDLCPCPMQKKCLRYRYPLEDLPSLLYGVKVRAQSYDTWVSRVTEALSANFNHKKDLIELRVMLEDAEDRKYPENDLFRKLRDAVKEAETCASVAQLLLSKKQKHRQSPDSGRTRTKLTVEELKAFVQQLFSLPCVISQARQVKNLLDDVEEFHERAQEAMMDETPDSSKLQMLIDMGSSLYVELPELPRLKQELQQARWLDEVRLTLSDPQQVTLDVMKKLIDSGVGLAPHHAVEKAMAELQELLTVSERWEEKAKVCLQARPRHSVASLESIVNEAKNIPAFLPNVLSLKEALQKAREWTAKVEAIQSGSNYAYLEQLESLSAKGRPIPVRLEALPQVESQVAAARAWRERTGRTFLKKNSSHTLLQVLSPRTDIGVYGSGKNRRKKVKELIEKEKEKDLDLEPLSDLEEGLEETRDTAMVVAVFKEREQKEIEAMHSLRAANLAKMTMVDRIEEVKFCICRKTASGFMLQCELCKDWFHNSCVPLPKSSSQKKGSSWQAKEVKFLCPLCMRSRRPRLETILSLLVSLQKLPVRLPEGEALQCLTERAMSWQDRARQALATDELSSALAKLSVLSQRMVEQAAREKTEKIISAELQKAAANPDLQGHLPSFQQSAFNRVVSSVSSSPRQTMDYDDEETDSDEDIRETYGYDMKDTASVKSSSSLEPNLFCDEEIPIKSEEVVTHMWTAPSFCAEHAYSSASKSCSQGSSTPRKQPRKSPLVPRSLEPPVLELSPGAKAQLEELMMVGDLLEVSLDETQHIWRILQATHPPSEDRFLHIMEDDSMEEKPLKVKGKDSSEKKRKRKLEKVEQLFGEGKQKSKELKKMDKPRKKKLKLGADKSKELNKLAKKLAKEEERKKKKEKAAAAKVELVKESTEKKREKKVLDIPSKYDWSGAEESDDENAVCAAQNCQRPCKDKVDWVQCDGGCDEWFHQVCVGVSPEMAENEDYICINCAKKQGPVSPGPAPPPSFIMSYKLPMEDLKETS
Description: Full length KDM5A enzyme was expressed and purified inhouse. Biotin-H3K4me3 peptide was purchased from New England Biolabs. HTRF reagents (containing Eu-labeled H3K4me1-2 antibody, and streptavidin-XL665) were purchased from Cis-Bio International. Plates were read on an Envision multi-label plate reader Perkin Elmer).
The HTRF assay mixture contained 2 nM full length KDM5A enzyme, 100 nM H3K4Me3 peptide substrate, 1 uM 2-OG, 100 uM Fe^2+, 500 uM ascorbate. 50 mM HEPES pH 7.0 buffer, 0.01% Triton-X 100, 2 mM DTT. […] The plates were incubated at room temperature for 60 minutes and then read in the Envision plate reader.

[1] = compounds of Examples 1-432, read-out: Example 463 Assay KDM5A HTRF IC50

Row | SMILES | IC50 (KDM5A; [1]) | further results
1 | CCOC(=O)Cc1c(C)[nH]c2c(C#N)c(C)nn2c1=O [Compound I-1] | – | IC50 (GASC1): ≥ 50000 nM
2 | CCOC(=O)Cc1c(C)[nH]c2c(C#N)cnn2c1=O [Compound I-2] | – | IC50 (GASC1): ≥ 50000 nM
3 | N#Cc1cnn2c(=O)c3c([nH]c12)CCC3 [Compound I-3] | – | IC50 (GASC1): 1000 to 10000 nM
4 | CCc1c(C)[nH]c2c(C#N)c(C)nn2c1=O [Compound I-5] | – | IC50 (GASC1): 1000 to 10000 nM
5 | COc1cc(-c2[nH]c3c(C#N)cnn3c(=O)c2C(C)C)ccn1 [Example 277] | – | IC50 (KDM5A): 32 nM
6 | Cc1nc(-c2ccccc2)sc1-c1[nH]c2c(C#N)cnn2c(=O)c1C(C)C [Example 278] | 76 nM | –
7 | CC(C)c1c(-c2cc(N)cc(C#N)c2)[nH]c2c(C#N)cnn2c1=O [Example 279] | 24 nM | –
8 | CC(C)c1c(-c2cnn(C3CCOC3)c2)[nH]c2c(C#N)cnn2c1=O (stereo not shown) [Example 280] | 15 nM | –
9 | CCNC(=O)c1cccc(-c2[nH]c3c(C#N)cnn3c(=O)c2C(C)C)c1 [Example 281] | 32 nM | –
10 | CC(C)c1c(-c2cccc(CC(N)=O)c2)[nH]c2c(C#N)cnn2c1=O [Example 282] | 8 nM | –
11 | CC(C)c1c(-c2ccc(-c3ccccc3)nc2)[nH]c2c(C#N)cnn2c1=O [Example 283] | 37 nM | –
12 | CC(C)c1c(-c2cnn(C3CCCOC3)c2)[nH]c2c(C#N)cnn2c1=O (stereo not shown) [Example 285] | 23 nM | –
13 | COCC(C)n1cc(-c2[nH]c3c(C#N)cnn3c(=O)c2C(C)C)cn1 (stereo not shown) [Example 286] | 30 nM | –
14 | CCOCCn1cc(-c2[nH]c3c(C#N)cnn3c(=O)c2C(C)C)cn1 [Example 287] | 22 nM | –
15 | CC(=O)N1CC=C(c2[nH]c3c(C#N)cnn3c(=O)c2C(C)C)C1 [Example 288] | 12 nM | –
16 | CC(=O)N1CCC=C(c2[nH]c3c(C#N)cnn3c(=O)c2C(C)C)C1 [Example 289] | 35 nM | –
17 | CCC(=O)N1CCC=C(c2[nH]c3c(C#N)cnn3c(=O)c2C(C)C)C1 [Example 290] | 39 nM | –
18 | CCC(=O)N1CC=C(c2[nH]c3c(C#N)cnn3c(=O)c2C(C)C)C1 [Example 291] | 55 nM | –
19 | CC(C)c1c(C2=CCNC2)[nH]c2c(C#N)cnn2c1=O [Example 293] | 19 nM | –
20 | CC(C)c1c(C2=CCCNC2)[nH]c2c(C#N)cnn2c1=O [Example 294] | 62 nM | –
21 | CC(C)c1c(C2=CCCN(C)C2)[nH]c2c(C#N)cnn2c1=O [Example 295] | 39 nM | –
22 | C=CC(=O)N1CCC=C(c2[nH]c3c(C#N)cnn3c(=O)c2C(C)C)C1 [Example 296] | 47 nM | –
23 | C=CC(=O)N1CC=C(c2[nH]c3c(C#N)cnn3c(=O)c2C(C)C)C1 [Example 297] | 28 nM | –
24 | Cc1cc(-c2[nH]c3c(C#N)cnn3c(=O)c2C(C)C)cc(C)c1Cl [Example 298] | 24 nM | –

Row | SMILES | IC50 (KDM5A; [1]) | further results
25 | Cc1cc(-c2[nH]c3c(C#N)cnn3c(=O)c2C(C)C)ccc1C#N [Example 299] | 25 nM | –
26 | CC(C)c1c(-c2ccc3c(c2)CCC3=O)[nH]c2c(C#N)cnn2c1=O [Example 300] | 18 nM | –
27 | CC(C)c1c(-c2ccc(C(F)(F)F)c(C(F)(F)F)c2)[nH]c2c(C#N)cnn2c1=O [Example 301] | 170 nM | –
28 | Cc1cc(-c2[nH]c3c(C#N)cnn3c(=O)c2C(C)C)ccc1C(F)(F)F [Example 302] | 52 nM | –
29 | CC(C)c1c(-c2cnn(Cc3cccc4ccsc34)c2)[nH]c2c(C#N)cnn2c1=O [Example 303] | 15 nM | –
30 | CC(C)c1c(-c2ccc(F)c(C(=O)NC3CCCCC3)c2)[nH]c2c(C#N)cnn2c1=O [Example 304] | 52 nM | –
31 | CC(C)c1c(-c2ccc(N3CCOCC3)cc2)[nH]c2c(C#N)cnn2c1=O [Example 305] | 47 nM | –
32 | CC(C)c1c(-c2ccc(N3CCN(C(=O)OC(C)(C)C)CC3)cc2)[nH]c2c(C#N)cnn2c1=O [Example 306] | 200 nM | –
33 | Cc1cc(Cl)cc(-c2[nH]c3c(C#N)cnn3c(=O)c2C(C)C)c1 [Example 307] | 25 nM | –
34 | CC(C)c1c(-c2cccc(S(C)(=O)=O)c2)[nH]c2c(C#N)cnn2c1=O [Example 308] | 17 nM | –
35 | CC(C)c1c(-c2ccc(NS(C)(=O)=O)cc2)[nH]c2c(C#N)cnn2c1=O [Example 309] | 37 nM | –
36 | CC(C)c1c(-c2ccc(CN3CCOCC3)cc2)[nH]c2c(C#N)cnn2c1=O [Example 310] | 19 nM | –
37 | CC(C)c1c(-c2cccc(N3CCOCC3)c2)[nH]c2c(C#N)cnn2c1=O [Example 311] | 28 nM | –
38 | CC(C)c1c(-c2ccc(Oc3ccccc3)cc2)[nH]c2c(C#N)cnn2c1=O [Example 312] | 28 nM | –
39 | C=CC(=O)NCCn1cc(-c2[nH]c3c(C#N)cnn3c(=O)c2C(C)C)cn1 [Example 313] | 18 nM | –
40 | CC(C)c1c(-c2cnn(CCN)c2)[nH]c2c(C#N)cnn2c1=O [Example 314] | 5.2 nM | –
41 | Cc1ccc(-c2[nH]c3c(C#N)cnn3c(=O)c2C(C)C)cc1C1CC1 [Example 315] | 24 nM | –
42 | CCOc1cccc(-c2[nH]c3c(C#N)cnn3c(=O)c2C(C)C)c1 [Example 316] | 34 nM | –
43 | CC(C)c1c(-c2cccc(CO)c2)[nH]c2c(C#N)cnn2c1=O [Example 317] | 25 nM | –
44 | CC(C)c1c(-c2cnn(CCNC(=O)OC(C)(C)C)c2)[nH]c2c(C#N)cnn2c1=O [Example 318] | 21 nM | –
45 | CC(C)c1c(-c2cccc(OCCc3ccccc3)c2)[nH]c2c(C#N)cnn2c1=O [Example 319] | 46 nM | –
46 | CC(C)c1c(C2=CCNCC2)[nH]c2c(C#N)cnn2c1=O [Example 320] | 20 nM | –
47 | C=CS(=O)(=O)NCCn1cc(-c2[nH]c3c(C#N)cnn3c(=O)c2C(C)C)cn1 [Example 321] | 23 nM | –
48 | CC(C)c1c(-c2ccc(Nc3ccccc3)cc2)[nH]c2c(C#N)cnn2c1=O [Example 322] | 10 nM | –

Row | SMILES | IC50 (KDM5A; [1]) | further results
49 | Cc1n[nH]cc1-c1[nH]c2c(C#N)cnn2c(=O)c1C(C)C [Example 323] | 31 nM | –
50 | CC(C)c1c(-c2ccc(OCc3ccccc3)cc2)[nH]c2c(C#N)cnn2c1=O [Example 324] | 26 nM | –
51 | CC(C)c1c(-c2cc(F)cc(F)c2)[nH]c2c(C#N)cnn2c1=O [Example 325] | 19 nM | –
52 | CC(C)c1c(-c2cc(F)cc(C(F)(F)F)c2)[nH]c2c(C#N)cnn2c1=O [Example 326] | 14 nM | –
53 | CCS(=O)(=O)c1cccc(-c2[nH]c3c(C#N)cnn3c(=O)c2C(C)C)c1 [Example 327] | 48 nM | –
54 | CC(C)c1c(-c2cccc(OC(F)(F)F)c2)[nH]c2c(C#N)cnn2c1=O [Example 328] | 30 nM | –
55 | CC(C)c1c(-c2cnn(Cc3cncs3)c2)[nH]c2c(C#N)cnn2c1=O [Example 329] | 11 nM | –
56 | Cc1ccc(-c2[nH]c3c(C#N)cnn3c(=O)c2C(C)C)cc1 [Example 330] | 23 nM | –
57 | CC(C)c1c(-c2ccc(C3CC3)cc2)[nH]c2c(C#N)cnn2c1=O [Example 331] | 27 nM | –
58 | CCS(=O)(=O)c1ccc(-c2[nH]c3c(C#N)cnn3c(=O)c2C(C)C)cc1 [Example 332] | 20 nM | –
59 | C=Cc1cccc(Cn2cc(-c3[nH]c4c(C#N)cnn4c(=O)c3C(C)C)cn2)n1 [Example 333] | 12 nM | –
60 | CC(C)c1c(-c2ccc(OCc3ccccc3)nc2)[nH]c2c(C#N)cnn2c1=O [Example 334] | 25 nM | –
61 | CC(C)c1c(C2=CCN(C(=O)OC(C)(C)C)C2)[nH]c2c(C#N)cnn2c1=O [Example 335] | 60 nM | –
62 | CC(C)c1c(-c2cnn(C(CO)c3ccccc3)c2)[nH]c2c(C#N)cnn2c1=O (stereo not shown) [Example 336] | 32 nM | –
63 | CC(C)c1c(-c2cnn(C(CC#N)c3ccccc3)c2)[nH]c2c(C#N)cnn2c1=O (stereo not shown) [Example 337] | 25 nM | –
64 | CC(C)c1c(-c2ccc(C3CC3)nc2)[nH]c2c(C#N)cnn2c1=O [Example 338] | 34 nM | –
65 | COc1cc(-c2[nH]c3c(C#N)cnn3c(=O)c2C(C)C)ccc1C#N [Example 339] | 33 nM | –
66 | COc1ccc(-c2[nH]c3c(C#N)cnn3c(=O)c2C(C)C)cc1C(F)(F)F [Example 340] | 31 nM | –
67 | CC(C)c1c(-c2ccc(Cl)cc2)[nH]c2c(C#N)cnn2c1=O [Example 341] | – | IC50 (KDM5A): 21 nM
68 | CC(C)c1c(-c2cnn(Cc3ccc(F)c(F)c3)c2)[nH]c2c(C#N)cnn2c1=O [Example 342] | 9 nM | –
69 | Cc1ccc(-c2[nH]c3c(C#N)cnn3c(=O)c2C(C)C)cc1C(F)(F)F [Example 343] | 36 nM | –
70 | CC(C)c1c(-c2ccc(C(=O)N3CCCC3)cc2)[nH]c2c(C#N)cnn2c1=O [Example 344] | 93 nM | –
